In patent US20250213547A1, “METHODS OF TREATING NEUROLOGICAL DISEASES” (priority 2022, published 2025):
Several values for one entry are separate records, joined by “and”; a condition that tells them apart may be missing. Equal entries are not always repeated. Where two headings read alike, the source gives them in different places.

Experiments:
[1] = Adult DEE patients (Part A/Part B): safety and tolerability; assay type: in vivo, human
Source text: (§1) The third clinical trial was a randomized, double-blind, placebo controlled study. […] After the completion of Part A, 16 patients continued in Part B with open-label treatment for 60 additional days. Patients were included in the trial if they were 18-65 years of age with an established diagnosis of DEE, such as Lennox-Gastaut syndrome, Dravet syndrome, or tuberous sclerosis complex. For enrollment, patients were required to have had at least two bilateral motor seizures per month in the three months prior. In addition, during the 4-week baseline period prior to dosing, patients were required to have incurred at least one bilateral motor seizure. Exclusion criteria included abnormal ECG, degenerative eye disease, or admission to emergency care for treatment of status epilepticus that required mechanical ventilation.
Only patients having at least one bilateral seizure during the baseline study were eligible to continue. […] The range of seizure types included tonic-clonic, drop seizures, tonic, atonic, bilateral clonic, myoclonic-atonic, myotonic-tonic-clonic, and focal seizures. Aside from seizure history, subjects were also enrolled based on an establish diagnosis of DEE, such as Lennox-Gastaut syndrome (LGS) and Dravet syndrome (DS), tuberous sclerosis complex, and a history of special education or an overall intellectual quotient of <70. […] Subjects could continue taking 1-4 anti-seizure medicines (ASM), with the exception of stiripentol, during the study. […]
The safety and tolerability assessments included blood pressure, heart rate, respiratory rate, temperature, treatment-emergent adverse effects, clinical laboratory tests, electrocardiogram data, neurological and ophthalmic examination, and the Columbia-suicide severity rating scale (C-SSRS).
Patients were dosed 100 mg, 200 mg, or 300 mg BID. Dosage (mg BID) in each interval reflects the final dose during that interval. Fields showing 0 mg in days 1-10, 11-20, and 21-30 intervals are patients who were assigned to the placebo group in Part A of the study.

[2] = tested on: seizure frequency in developmental and/or epileptic encephalopathy patients; assay: Adult DEE patients: antiseizure efficacy (seizure frequency); assay type: in vivo, human
Source text: as §1
Only patients having at least one bilateral seizure during the baseline study were eligible to continue. […] The range of seizure types included tonic-clonic, drop seizures, tonic, atonic, bilateral clonic, myoclonic-atonic, myotonic-tonic-clonic, and focal seizures. Aside from seizure history, subjects were also enrolled based on an establish diagnosis of DEE, such as Lennox-Gastaut syndrome (LGS) and Dravet syndrome (DS), tuberous sclerosis complex, and a history of special education or an overall intellectual quotient of <70. […] Subjects could continue taking 1-4 anti-seizure medicines (ASM), with the exception of stiripentol, during the study.
FIG. 9A depicts the study paradigm and FIG. 9B depicts the patient disposition. […] Part B consisted of an open-label 85-day extension study to ensure long-term safety and tolerability. The first 20 days of part A consisted of a tolerability titration phase, and thereafter a maintenance phase lasting from days 21-30.

[3] = for Avg. CFBL 24HC / Max. CFBL 24HC: Table 34, ELEKTRA patients, steady-state; for Avg. Ch. f. BL. 24HC / Max. Red. f. BL. 24HC: Table 34A, ELEKTRA (TAK-935-2002)
Source text: Other inclusion criteria were body weight ≥10 kg, currently taking a fixed dosage of 1 to 4 antiseizure medications, and failure to remain seizure free after trying at least two antiseizure medications. Convulsive seizures include focal to bilateral tonic-clonic with impaired awareness, hemi-clonic, simultaneous bilateral clonic, and generalized tonic-clonic seizures. Drop seizures can involve the entire body, trunk, or head which leads to falling. […] Approximately 126 patients ages ≥2 and ≤17 years were enrolled in the study. The study included two main phases, a 4-6 week screening and baseline period, and a 20-week treatment period. Patients received doses twice a day in a tablet formulation. The starting dose was adjusted according to the patient's body weight (Table 17).
During the first 8 weeks of treatment patient dosing was a titrated for individual optimization. The remaining 12-weeks of treatment consisted of a maintenance phase. The study began with treating patients ≥9 years of age for one month before treating younger patients. Blood was collected for PK analysis on the first dosage day within one hour of the morning dose, and 30 minutes, and 1, 2, 3, and 4 hours post-dose. Subsequent blood sampling took place before the morning dose and 30 minutes post-dose. Blood samples were obtained at scheduled times for determining PK profile and Tmax, which is the time Cmax was reached. A patient's seizure frequency was recorded before and during the trial to calculate percent change from baseline.
The PK model parameters can be used as a tool to estimate PK and drug exposure in an individual or a population (such as with ELEKTRA), as well as to calculate individualized dosing based on covariates. For example, optimal daily dosing can be calculated using the area under the concentration time curve and clearance values (dose=targetAUC24×CL). Blood sampling at steady-state was limited in the ELEKTRA study, thus some of the PK parameters shown in Table 32 for the ELEKTRA population were simulated by interpolation.
The dots represent the simulation and the numbers below the dot represent the simulated covariate value, while the values above the dots show the percent change from the reference level. The vertical line labeled “ref” depicts the reference level. […] The CV % refers to the coefficient of variation assuming a log-normal distribution, derived as […], where σ denotes the standard deviation of the log-transformed values.
The term AUC(0-tau) stands for AUC to the end of the dosing period. The covariate effects were analyzed using exposure parameters AUC, Cmax, and Ctrough.

[4] = Eq. Dose 100 mg (N = 70), Median
[5] = Eq. Dose 100 mg (N = 70), Range
[6] = Eq. Dose 200 mg (N = 68), Median
[7] = Eq. Dose 200 mg (N = 68), Range
[8] = Eq. Dose 300 mg (N = 56), Median
[9] = Eq. Dose 300 mg (N = 56), Range
[10] = Equiv. Dose 100 mg BID, N = 70, Mean
[11] = Equiv. Dose 100 mg BID, N = 70, Median
[12] = Equiv. Dose 100 mg BID, N = 70, Range
[13] = Equiv. Dose 200 mg BID, N = 68, Mean
[14] = Equiv. Dose 200 mg BID, N = 68, Median
[15] = Equiv. Dose 200 mg BID, N = 68, Range
[16] = Equiv. Dose 300 mg BID, N = 56, Mean
[17] = Equiv. Dose 300 mg BID, N = 56, Median
[18] = Equiv. Dose 300 mg BID, N = 56, Range

O=C(c1cccnc1-c1ccncc1)N1CCC(O)(Cc2ccccc2)CC1 [soticlestat]
Upper respiratory tract infection, n participants ([1]; Part A, soticlestat (n = 14)): 2 n | Upper respiratory tract infection, n participants ([1]; Part B open-label, all (n = 16)): 1 n | Dysarthria, n participants ([1]; human, in vivo, 30 days): 3 n | Fatigue, n participants ([1]; human, in vivo, 30 days): 2 n | Headache, n participants ([1]; human, in vivo, 30 days): 2 n | Lethargy, n participants ([1]; human, in vivo, 30 days): 2 n | TEAE incidence ([1]; human, in vivo, 30 days): 71.4% | deaths ([1]; soticlestat arm): no deaths | change in seizure frequency from baseline, individual patients ([2]; Part A, three patients treated concurrently with perampanel): +107% and +465% and +4% | median percent change from baseline seizure frequency ([2]; Part B maintenance, days 42-85 (n=16)): −36.38% | median percent change from baseline seizure frequency ([2]; Part B, excluding patients taking perampanel (n=13)): −44.66% | change in seizure frequency from baseline, individual patients ([2]; Part B, three patients taking perampanel): +297% and +398% and +175% | median seizure frequency ([2]; all completers except those taking perampanel): 25.60 per 28 days | reduction in seizure frequency in two patients ([2]; last 4 weeks/month of treatment): 100% | median percent change from baseline seizure frequency ([2]; last 28 days of Part B (post-hoc)): −60.74% | Avg. CFBL 24HC ([3]; Eq. Dose 100 mg (N = 70), Mean): −69.4% | Max. CFBL 24HC ([3]; Eq. Dose 100 mg (N = 70), Mean): −69.6% | Avg. CFBL 24HC [3, 4]: −70.8% | Max. CFBL 24HC [3, 4]: −71% | Avg. CFBL 24HC [3, 5]: −86.9-−42.2% | Max. CFBL 24HC [3, 5]: −87-−42.6% | Avg. CFBL 24HC ([3]; Eq. Dose 200 mg (N = 68), Mean): −78.6% | Max. CFBL 24HC ([3]; Eq. Dose 200 mg (N = 68), Mean): −78.7% | Avg. CFBL 24HC [3, 6]: −80.7% | Max. CFBL 24HC [3, 6]: −80.8% | Avg. CFBL 24HC [3, 7]: −89.7-−54.7% | Max. CFBL 24HC [3, 7]: −89.8-−55% | Avg. CFBL 24HC ([3]; Eq. Dose 300 mg (N = 56), Mean): −82% | Max. CFBL 24HC ([3]; Eq. Dose 300 mg (N = 56), Mean): −82.1% | Avg. CFBL 24HC [3, 8]: −84% | Max. CFBL 24HC [3, 8]: −84.1% | Avg. CFBL 24HC [3, 9]: −90.9-−64.1% | Max. CFBL 24HC [3, 9]: −90.9-−64.4% | Avg. Ch. f. BL. 24HC [3, 10]: −67.38% | Max. Red. f. BL. 24HC [3, 10]: −67.65% | Avg. Ch. f. BL. 24HC [3, 11]: −70.08% | Max. Red. f. BL. 24HC [3, 11]: −70.39% | Avg. Ch. f. BL. 24HC [3, 12]: −86.70-−10.05% | Max. Red. f. BL. 24HC [3, 12]: −86.77-−10.19% | Avg. Ch. f. BL. 24HC [3, 13]: −76.77% | Max. Red. f. BL. 24HC [3, 13]: −76.97% | Avg. Ch. f. BL. 24HC [3, 14]: −80.21% | Max. Red. f. BL. 24HC [3, 14]: −80.37% | Avg. Ch. f. BL. 24HC [3, 15]: −89.03-−18.58% | Max. Red. f. BL. 24HC [3, 15]: −89.07-−18.80% | Avg. Ch. f. BL. 24HC [3, 16]: −79.95% | Max. Red. f. BL. 24HC [3, 16]: −80.11% | Avg. Ch. f. BL. 24HC [3, 17]: −82.50% | Max. Red. f. BL. 24HC [3, 17]: −82.65% | Avg. Ch. f. BL. 24HC [3, 18]: −89.98-−23.43% | Max. Red. f. BL. 24HC [3, 18]: −90.00-−23.69%
